Where two headings read alike, the source gives them in different places.
Tests used:
mouse iNOS = target: T1, mouse iNOS (Mus musculus, UniProt P29477); assay: NOS inhibition, oxyhemoglobin (hemoglobin capture) test, recombinant iNOS; format: biochemical; settings: recombinant enzyme, 20 µM arginine, triplicate, NI = <50% inhibition at 100 μM
T1 construct: Full-length recombinant rat nNOS, mouse iNOS, bovine eNOS; made in house; host or cells: Escherichia coli
T1 sequence (P29477 1-1144): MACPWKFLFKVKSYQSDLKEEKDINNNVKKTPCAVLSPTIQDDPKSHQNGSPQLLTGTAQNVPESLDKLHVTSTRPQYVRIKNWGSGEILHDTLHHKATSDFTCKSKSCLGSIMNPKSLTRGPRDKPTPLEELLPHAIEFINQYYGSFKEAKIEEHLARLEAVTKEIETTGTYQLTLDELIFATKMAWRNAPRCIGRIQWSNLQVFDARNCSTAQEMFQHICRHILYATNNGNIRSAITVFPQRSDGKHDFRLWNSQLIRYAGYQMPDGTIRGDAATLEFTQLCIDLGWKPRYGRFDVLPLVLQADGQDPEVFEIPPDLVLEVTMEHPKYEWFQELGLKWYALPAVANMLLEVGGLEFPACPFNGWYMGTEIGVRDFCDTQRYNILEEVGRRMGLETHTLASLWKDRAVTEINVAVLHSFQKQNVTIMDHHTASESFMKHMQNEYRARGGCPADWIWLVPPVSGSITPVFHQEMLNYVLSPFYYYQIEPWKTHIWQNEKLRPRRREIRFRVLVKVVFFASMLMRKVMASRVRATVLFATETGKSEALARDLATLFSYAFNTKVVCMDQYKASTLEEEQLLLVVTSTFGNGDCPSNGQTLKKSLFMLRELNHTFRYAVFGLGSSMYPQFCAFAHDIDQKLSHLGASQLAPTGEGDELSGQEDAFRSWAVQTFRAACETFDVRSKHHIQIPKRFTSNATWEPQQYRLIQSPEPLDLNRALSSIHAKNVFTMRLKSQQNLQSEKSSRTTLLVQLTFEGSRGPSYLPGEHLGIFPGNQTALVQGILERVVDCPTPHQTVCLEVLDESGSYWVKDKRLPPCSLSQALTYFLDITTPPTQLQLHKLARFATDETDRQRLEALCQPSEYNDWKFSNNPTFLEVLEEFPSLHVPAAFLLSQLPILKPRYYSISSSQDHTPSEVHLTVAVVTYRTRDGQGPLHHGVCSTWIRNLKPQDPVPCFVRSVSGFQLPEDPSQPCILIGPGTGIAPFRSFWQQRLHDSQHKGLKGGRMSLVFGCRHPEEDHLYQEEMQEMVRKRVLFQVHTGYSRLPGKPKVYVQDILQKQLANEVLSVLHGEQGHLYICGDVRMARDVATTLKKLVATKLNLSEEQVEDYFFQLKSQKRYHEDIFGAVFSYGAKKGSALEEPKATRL
Experimental: (§1) The inhibitory effects of all compounds against the three recombinant NOSs (rat nNOS, mouse iNOS, and bovine eNOS) were evaluated in 96-well plates using the oxyhemoglobin test. A first screening at 100 and 10 μM was performed, and the IC50 values were measured for compounds showing more than 50% inhibition at 100 μM (Table 1 and Table 2).
(§2) Full-length recombinant rat nNOS, mouse iNOS, bovine eNOS, and the heme domains of rat brain nNOS and mouse iNOS were expressed in Escherichia coli and purified as described previously.
(§3) NOS catalytic activity was measured using the hemoglobin capture assay. The test was performed at 30 °C in 96-well microplates using a final volume of 200 µL. The assay mixture contained 100 µM NADPH, 10 µM BH4, 6 µM HbO2, 100 µM DTT, 5 µM FAD, 5 µM FMN, 10 µM (nNOS and eNOS), or 20 µM (iNOS) arginine, all in a 100 mM Hepes buffer, pH 7.5, and, for constitutive n- and e-NOS, 10 µg/mL calmodulin, and 1 mM CaCl2. The studied compounds were introduced as 2 μL of ×100 concentrated solutions in DMSO, and the control experiments were performed with DMSO or the buffer only. The kinetics of NO production were measured at 401 nm using an Infinite F500 microplate reader (Tecan, Singapore).

bovine eNOS = target: T2, bovine eNOS (Bos taurus, UniProt P29473); assay: NOS inhibition, oxyhemoglobin (hemoglobin capture) test, recombinant eNOS; format: biochemical; settings: recombinant enzyme, 10 µM arginine, triplicate, NI = <50% inhibition at 100 μM; for inhibition at 100 µM: read-out: IC50 (μM) eNOS (Bovine)
T2 construct: Full-length recombinant rat nNOS, mouse iNOS, bovine eNOS; made in house; host or cells: Escherichia coli
T2 sequence (P29473 whole entry): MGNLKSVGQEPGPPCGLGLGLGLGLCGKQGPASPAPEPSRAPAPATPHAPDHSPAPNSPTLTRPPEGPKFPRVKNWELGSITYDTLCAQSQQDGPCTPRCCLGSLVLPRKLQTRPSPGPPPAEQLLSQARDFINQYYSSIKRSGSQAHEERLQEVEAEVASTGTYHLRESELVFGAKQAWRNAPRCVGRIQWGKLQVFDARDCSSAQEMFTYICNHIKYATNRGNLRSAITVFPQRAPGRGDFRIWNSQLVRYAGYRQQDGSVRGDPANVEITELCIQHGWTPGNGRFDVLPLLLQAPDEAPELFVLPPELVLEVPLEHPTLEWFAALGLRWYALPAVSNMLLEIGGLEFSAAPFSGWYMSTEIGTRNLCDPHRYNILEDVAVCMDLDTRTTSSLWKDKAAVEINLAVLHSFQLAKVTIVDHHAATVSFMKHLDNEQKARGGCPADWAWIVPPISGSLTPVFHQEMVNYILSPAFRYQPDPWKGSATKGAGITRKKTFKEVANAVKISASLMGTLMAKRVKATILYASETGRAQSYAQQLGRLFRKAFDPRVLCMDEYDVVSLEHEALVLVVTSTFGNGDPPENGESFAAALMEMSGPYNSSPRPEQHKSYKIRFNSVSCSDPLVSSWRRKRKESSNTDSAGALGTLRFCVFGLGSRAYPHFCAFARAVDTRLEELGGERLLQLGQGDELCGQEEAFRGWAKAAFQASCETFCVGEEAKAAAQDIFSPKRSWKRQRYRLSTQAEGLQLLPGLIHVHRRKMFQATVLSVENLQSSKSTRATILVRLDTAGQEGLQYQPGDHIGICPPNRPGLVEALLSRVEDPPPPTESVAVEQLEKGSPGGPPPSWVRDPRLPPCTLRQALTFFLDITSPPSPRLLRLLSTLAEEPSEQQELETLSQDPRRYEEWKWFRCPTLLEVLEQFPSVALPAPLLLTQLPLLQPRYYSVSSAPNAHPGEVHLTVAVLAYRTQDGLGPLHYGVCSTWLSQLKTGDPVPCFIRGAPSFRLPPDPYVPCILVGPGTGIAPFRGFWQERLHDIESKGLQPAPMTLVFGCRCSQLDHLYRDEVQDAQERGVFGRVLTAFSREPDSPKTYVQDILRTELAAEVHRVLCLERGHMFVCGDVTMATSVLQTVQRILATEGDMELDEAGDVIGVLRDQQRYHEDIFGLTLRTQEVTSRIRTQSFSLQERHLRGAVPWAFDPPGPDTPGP
Experimental: The inhibitory effects of all compounds against the three recombinant NOSs (rat nNOS, mouse iNOS, and bovine eNOS) were evaluated in 96-well plates using the oxyhemoglobin test [53].
NOS catalytic activity was measured using the hemoglobin capture assay [53]. The test was performed at 30 °C in 96-well microplates using a final volume of 200 µL. The assay mixture contained 100 µM NADPH, 10 µM BH4, 6 µM HbO2, 100 µM DTT, 5 µM FAD, 5 µM FMN, 10 µM (nNOS and eNOS), or 20 µM (iNOS) arginine, all in a 100 mM Hepes buffer, pH 7.5, and, for constitutive n- and e-NOS, 10 µg/mL calmodulin, and 1 mM CaCl2. The studied compounds were introduced as 2 μL of ×100 concentrated solutions in DMSO, and the control experiments were performed with DMSO or the buffer only. The kinetics of NO production were measured at 401 nm using an Infinite F500 microplate reader (Tecan, Singapore).

rat nNOS = target: T3, rat nNOS (Rattus norvegicus, UniProt P29476); assay: NOS inhibition, oxyhemoglobin (hemoglobin capture) test, recombinant nNOS; format: biochemical
T3 construct: Full-length recombinant rat nNOS, mouse iNOS, bovine eNOS; made in house; host or cells: Escherichia coli
T3 sequence (P29476 whole entry): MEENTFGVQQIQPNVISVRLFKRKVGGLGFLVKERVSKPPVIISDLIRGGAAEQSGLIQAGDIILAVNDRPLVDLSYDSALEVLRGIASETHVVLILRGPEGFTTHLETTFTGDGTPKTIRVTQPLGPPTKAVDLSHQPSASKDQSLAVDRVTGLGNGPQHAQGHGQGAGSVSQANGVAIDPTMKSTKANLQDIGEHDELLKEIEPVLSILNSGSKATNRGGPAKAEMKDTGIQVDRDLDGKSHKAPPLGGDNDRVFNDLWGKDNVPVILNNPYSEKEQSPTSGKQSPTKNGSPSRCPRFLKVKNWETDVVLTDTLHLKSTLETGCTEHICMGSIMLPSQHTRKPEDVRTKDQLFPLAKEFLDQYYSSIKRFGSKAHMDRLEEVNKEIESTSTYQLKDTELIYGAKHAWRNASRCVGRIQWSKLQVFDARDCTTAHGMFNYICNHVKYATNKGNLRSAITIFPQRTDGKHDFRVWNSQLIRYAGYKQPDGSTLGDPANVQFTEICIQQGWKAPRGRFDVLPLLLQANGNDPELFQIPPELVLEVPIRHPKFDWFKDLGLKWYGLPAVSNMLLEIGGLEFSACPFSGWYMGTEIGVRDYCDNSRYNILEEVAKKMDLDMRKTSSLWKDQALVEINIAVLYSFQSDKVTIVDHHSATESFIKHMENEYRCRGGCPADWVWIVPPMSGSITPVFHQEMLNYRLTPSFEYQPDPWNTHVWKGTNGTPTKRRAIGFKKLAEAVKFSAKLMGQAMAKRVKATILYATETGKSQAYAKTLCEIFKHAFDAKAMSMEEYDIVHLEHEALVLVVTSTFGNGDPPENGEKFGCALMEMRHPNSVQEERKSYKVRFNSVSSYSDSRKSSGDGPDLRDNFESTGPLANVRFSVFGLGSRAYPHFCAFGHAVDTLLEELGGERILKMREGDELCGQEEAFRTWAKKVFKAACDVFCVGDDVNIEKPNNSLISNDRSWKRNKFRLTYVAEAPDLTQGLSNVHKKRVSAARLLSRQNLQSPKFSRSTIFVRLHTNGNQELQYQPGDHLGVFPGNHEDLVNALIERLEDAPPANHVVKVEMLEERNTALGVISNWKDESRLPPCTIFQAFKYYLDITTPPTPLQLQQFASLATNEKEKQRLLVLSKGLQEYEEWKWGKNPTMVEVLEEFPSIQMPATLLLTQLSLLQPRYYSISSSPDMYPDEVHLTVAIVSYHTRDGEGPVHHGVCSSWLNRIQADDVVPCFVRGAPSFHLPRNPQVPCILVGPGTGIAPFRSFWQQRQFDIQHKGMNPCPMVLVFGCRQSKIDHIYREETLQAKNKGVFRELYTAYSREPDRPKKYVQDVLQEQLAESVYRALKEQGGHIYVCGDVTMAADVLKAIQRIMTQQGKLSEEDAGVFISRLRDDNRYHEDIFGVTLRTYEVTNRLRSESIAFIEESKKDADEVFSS
Experimental: as §1, §2, §3

RAW 264.7 cells = assay: Cell viability, MTT assay; format: cell-based, murine
Experimental: Cell viability was evaluated in the murine macrophage RAW 264.7 cells using an MTT assay for compounds 18, 21, 26, and 30. This experiment was performed without or with LPS (1 µg/mL), which induces iNOS expression (Figure S1). […] Compound 30 only killed 20% of the cells at 500 μM (Figure S1A). In the presence of LPS (1 µg/mL), cell viability was reduced by 30% due to the inhibition by NO of key enzymes involved in cell metabolism (Figure S1B).
The macrophage cell line RAW 264.7 (a gift from Dr. A. Blangy, Montpellier, France) was cultured in Dulbecco’s Modified Eagle’s Medium (DMEM) supplemented with 10% FCS, 100 units/mL penicillin, 100 µg/mL streptomycin, and 2 mM L-glutamine.
Cellular NO production was measured using the Griess reagent (Sigma-Aldrich), which evaluates the nitrite content in culture media. Cellular toxicity was estimated by the MTT assay (Sigma-Aldrich) in RAW 264.7 cells after the induction (or not) of iNOS by LPS, according to the manufacturer’s recommendations.

[1] = dipeptide-like series, recombinant enzyme, 10 µM arginine, triplicate, NI = <50% inhibition at 100 μM
[2] = 1,2,4-oxadiazole series, recombinant enzyme, 10 µM arginine, triplicate, NI = <50% inhibition at 100 μM

Row | Structure (SMILES) | IC50 (mouse iNOS; dipeptide-like series) | inhibition at 100 µM (bovine eNOS; dipeptide-like series) | IC50 (rat nNOS; [1]) | IC50 (mouse iNOS; 1,2,4-oxadiazole series) | IC50 (rat nNOS; [2]) | also measured
1 | CCSC(=N)NCCC[C@H](N)C(=O)N[C@@H]1CCCN(Cc2ccccc2)C1 [Compound 8] | 25.6 µM | < 50% | 15.6 µM | – | – | –
2 | CCSC(=N)NCCC[C@H](N)C(=O)N[C@H]1CCCN(Cc2ccccc2O)C1 [Compound 9] | 51 µM | < 50% | 51.1 µM | – | – | –
3 | CCSC(=N)NCCC[C@H](N)C(=O)N[C@H]1CCCN(Cc2cc(O)ccc2O)C1 [Compound 10] | 23.9 µM | – | 2 µM | – | – | IC50 (bovine eNOS; dipeptide-like series): 26.7 µM
4 | CCSC(=N)NCCC[C@H](N)C(=O)N[C@@H]1CCCN(Cc2cc(O)ccc2O)C1 [Compound 11] | 73.4 µM | – | – | – | – | IC50 (bovine eNOS; dipeptide-like series): 25.4 µM
5 | CCSC(=N)NCCC[C@H](N)C(=O)N[C@H]1CCCN(Cc2ccccc2[N+](=O)[O-])C1 [Compound 12] | 46 µM | < 50% | – | – | – | inhibition at 100 µM (rat nNOS; dipeptide-like series, recombinant enzyme, 10 µM arginine, triplicate, NI = <50% inhibition at 100 μM, read-out: IC50 (μM) nNOS (Rat)): < 50%
6 | CCSC(=N)NCCC[C@H](N)C(=O)N[C@@H]1CCCN(Cc2ccccc2[N+](=O)[O-])C1 [Compound 13] | 78.9 µM | < 50% | 30.6 µM | – | – | –
7 | CCSC(=N)NCCC[C@H](N)C(=O)N[C@H]1CCCN(Cc2cc(O)ccc2[N+](=O)[O-])C1 [Compound 15] | 31.3 µM | < 50% | 25.2 µM | – | – | –
8 | CCSC(=N)NCCC[C@H](N)C(=O)N[C@H]1CCCN(Cc2cc(OC)c(OC)c(OC)c2)C1 [Compound 16] | 54.9 µM | < 50% | 49.6 µM | – | – | –
9 | CCSC(=N)NCCC[C@H](N)C(=O)N[C@H]1CCCN(Cc2cccc(C(F)(F)F)c2)C1 [Compound 20] | – | < 50% | 15.4 µM | – | – | inhibition at 100 µM (mouse iNOS; dipeptide-like series, read-out: IC50 (μM) iNOS (Mouse)): < 50%
10 | CCSC(=N)NCCC[C@H](N)C(=O)N[C@H]1CCCN(Cc2ccc(-c3cccc([N+](=O)[O-])c3)cc2)C1 [Compound 24] | 21.6 µM | – | 3.5 µM | – | – | IC50 (bovine eNOS; dipeptide-like series): 18 µM
11 | CCSC(=N)NCCC[C@H](N)C(=O)N[C@H]1CCCN(Cc2cccc(-c3ccccc3)c2)C1 [Compound 25] | 36.5 µM | < 50% | 2.8 µM | – | – | –
12 | CCSC(=N)NCCC[C@H](N)C(=O)N[C@H]1CCCN(Cc2cccc(-c3cccc([N+](=O)[O-])c3)c2)C1 [Compound 26] | 48.3 µM | < 50% | 1.3 µM | – | – | Reversal of LPS-induced reduction of cell viability (RAW 264.7 cells; RAW 264.7, LPS 1 µg/mL): none partially reversed the LPS effect; Effect on cell viability (MTT) (RAW 264.7 cells; RAW 264.7, absence of LPS, up to 100 μM): fully toxic
13 | CCSC(=N)NCCC[C@H](N)c1nc(CCN)no1 [Compound 28] | – | – | – | 83.7 µM | 58.9 µM | inhibition at 100 µM (bovine eNOS; 1,2,4-oxadiazole series): < 50%
14 | CCSC(=N)NCCC[C@H](N)c1nc(CCNCc2ccccc2)no1 [Compound 29] | – | – | – | 11.1 µM | 13.4 µM | IC50 (bovine eNOS; 1,2,4-oxadiazole series): 17.9 µM
15 | CCSC(=N)NCCC[C@H](N)c1nc(CCN(Cc2ccccc2C)Cc2ccccc2C)no1 [Compound 31] | – | – | – | 11.1 µM | 9.9 µM | inhibition at 100 µM (bovine eNOS; 1,2,4-oxadiazole series): < 50%
16 | CCSC(=N)NCCC[C@H](N)c1nc(CCNCc2c(C)cccc2C)no1 [Compound 32] | – | – | – | 51.6 µM | 60.1 µM | –
17 | CCSC(=N)NCCC[C@H](N)c1nc(CCN(Cc2c(C)cccc2C)Cc2c(C)cccc2C)no1 [Compound 33] | – | – | – | 71.5 µM | 10.1 µM | inhibition at 100 µM (bovine eNOS; 1,2,4-oxadiazole series): < 50%
18 | CCSC(=N)NCCC[C@H](N)c1nc(CCN(Cc2cccc3ccccc23)Cc2cccc3ccccc23)no1 [Compound 34] | – | – | – | 4 µM | 1.4 µM | inhibition at 100 µM (bovine eNOS; 1,2,4-oxadiazole series): < 50%
19 | CCSC(=N)NCCC[C@H](N)c1nc(CCN(Cc2ccccc2O)Cc2ccccc2O)no1 [Compound 36] | – | – | – | 24.3 µM | 3.1 µM | IC50 (bovine eNOS; 1,2,4-oxadiazole series): 20.2 µM
20 | CCSC(=N)NCCC[C@H](N)c1nc(CCN(Cc2ccc([N+](=O)[O-])cc2)Cc2ccc([N+](=O)[O-])cc2)no1 [Compound 37] | – | – | – | 15.8 µM | 0.3 µM | IC50 (bovine eNOS; 1,2,4-oxadiazole series): 11.8 µM; Selectivity for nNOS against eNOS (rat nNOS; from IC50 values): ~40 fold; Selectivity for nNOS against iNOS (rat nNOS; from IC50 values): ~50 fold; Gain in nNOS inhibition potency over non-substituted compound 28 (rat nNOS; times more potent than 28): 200
21 | CCSC(=N)NCCC[C@H](N)c1nc(CCN(Cc2cccc([N+](=O)[O-])c2)Cc2cccc([N+](=O)[O-])c2)no1 [Compound 38] | – | – | – | 15.9 µM | 0.6 µM | IC50 (bovine eNOS; 1,2,4-oxadiazole series): 3.9 µM
22 | CCSC(=N)NCCC[C@H](N)c1nc(CCNCc2ccccc2[N+](=O)[O-])no1 [Compound 39] | – | – | – | 8 µM | 27 µM | IC50 (bovine eNOS; 1,2,4-oxadiazole series): 48.2 µM
23 | CCSC(=N)NCCC[C@H](N)c1nc(CCNCc2cc(O)ccc2[N+](=O)[O-])no1 [Compound 41] | – | – | – | 36.3 µM | 3 µM | –
24 | CCSC(=N)NCCC[C@H](N)c1nc(CCN(Cc2cc(O)ccc2[N+](=O)[O-])Cc2cc(O)ccc2[N+](=O)[O-])no1 [Compound 42] | – | – | – | 7 µM | 1.1 µM | inhibition at 100 µM (bovine eNOS; 1,2,4-oxadiazole series): < 50%
